In patent US20240210412A1, “SULFONYL-TRIAZOLE COMPOUNDS USEFUL AS LIGANDS AND INHIBITORS OF PROSTAGLANDIN REDUCTASE 2” (University of Virginia Patent Foundation, priority 2021, published 2024):

Tests used:
Experiment in all cases: SILAC LC-MS ABPP
Format in all cases: cell-based
Details in all cases: 25 μM 2 h, live DM93 cells
P25205 = biological target: T1, P25205 (Homo sapiens, UniProt P25205)
T1 construct: Probe-modified proteins from the soluble fraction were conjugated to a desthiobiotin-azide tag; endogenous in cells; host or cells: DM93 (SILAC)
T1 sequence (P25205 1-808): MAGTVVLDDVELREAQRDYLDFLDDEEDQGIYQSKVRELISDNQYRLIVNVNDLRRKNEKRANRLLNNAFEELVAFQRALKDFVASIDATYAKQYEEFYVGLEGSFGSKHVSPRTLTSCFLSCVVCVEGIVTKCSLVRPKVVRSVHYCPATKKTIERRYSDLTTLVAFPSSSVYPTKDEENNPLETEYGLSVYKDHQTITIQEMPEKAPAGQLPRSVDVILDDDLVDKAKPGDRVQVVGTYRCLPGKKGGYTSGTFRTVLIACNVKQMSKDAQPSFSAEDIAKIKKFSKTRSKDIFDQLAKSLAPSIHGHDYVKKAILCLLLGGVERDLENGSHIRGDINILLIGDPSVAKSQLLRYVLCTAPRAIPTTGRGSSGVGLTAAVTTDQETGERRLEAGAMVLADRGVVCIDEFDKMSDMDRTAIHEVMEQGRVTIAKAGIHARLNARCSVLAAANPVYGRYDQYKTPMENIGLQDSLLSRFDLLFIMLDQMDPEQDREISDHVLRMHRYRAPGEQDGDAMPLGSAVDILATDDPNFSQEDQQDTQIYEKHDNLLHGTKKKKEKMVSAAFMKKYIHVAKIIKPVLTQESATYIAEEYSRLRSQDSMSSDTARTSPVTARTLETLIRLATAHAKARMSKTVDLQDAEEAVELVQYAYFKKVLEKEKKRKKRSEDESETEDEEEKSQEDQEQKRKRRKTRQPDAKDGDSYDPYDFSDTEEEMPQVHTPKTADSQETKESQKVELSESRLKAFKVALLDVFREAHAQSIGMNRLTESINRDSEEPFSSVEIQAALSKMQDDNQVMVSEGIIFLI
Protocol: (§1) Cells were grown to 90-95% confluence before being washed once with warm, sterile DPBS (1×, 5 mL), followed by addition of 10 mL of serum-free media (supplemented with 1% L-glutamine) containing either DMSO or SuTEx fragment (in DMSO) was added. Light cells were treated with DMSO vehicle while the heavy cells were treated with DMSO or SuTEx fragment (in DMSO) and incubated for 2 hrs. After 2 hrs, the cells were treated with SuTEx alkyne probe (HHS475, 10 μL of 1000× DMSO stock) and incubated for an additional 2 hrs. The media was aspirated and cells washed with cold PBS (5 mL) and harvested. Cells were spun at 500×g for 5 min at 4° C. followed by removal of supernatant. Pellets were resuspended in 1 mL of cold DPBS and spun at 1,400×g for 3 min at 4° C. followed by removal of supernatant. The cells were lysed in PBS by sonication and fractionated (100,000×g, 45 min, 4° C.).The light and heavy soluble fractions were diluted to 2.3 mg/mL in PBS and 432 μL were used for analysis (1 mg total protein). The probe-modified proteomes were conjugated to desthiobiotin-PEG3-azide (10 μl of 10 mM stock in DMSO; 200 μM final concentration) using TCEP (10 μl of fresh 50 mM stock in water, 1 mM final concentration), TBTA ligand (33 μl of a 1.7 mM 4:1 t-butanol/DMSO stock, 100 μM final concentration) and CuSO4 (10 μl of 50 mM stock, 1 mM final concentration). Samples were vortexed to mix and incubated for 1 hr at room temperature. The heavy and light proteomes were mixed 1:1 and the subsequent steps, including LC-MS/MS data analysis, were performed as previously described^[8a].
(§2) Coupling cell-based screens with chemical proteomics can facilitate the identification of target protein and binding sites that engage and are irreversibly modified by covalent ligands^[12]. In these assays, covalent ligands block SuTEx activity-based probe (ABP) labeling at protein sites, and the competition of probe labeling can be used to quantify potency and selectivity across the proteome^[10a]. To facilitate quantitative chemical proteomics, DM93 melanoma cells were cultured using stable isotopic labeling by amino acids in cell culture (SILAC)^[13]. Cells cultured in “light” media were treated with dimethyl sulfoxide (DMSO) vehicle while cells cultured in “heavy” media were treated with SuTEx ligand (25 μM, 2 hours, 37° C.). Next, cells were treated with HHS-475 probe (100 μM, 2 hours, 37° C.) followed by lysis and processing of proteomes for analysis. Probe-modified proteins from the soluble fraction were conjugated to a desthiobiotin-azide tag by copper-catalyzed azide-alkyne cycloaddition (CuAAC)^[14] followed by mixing of the light and heavy proteomes. The combined proteomes were digested with trypsin protease to produce probe-modified peptides, followed by enrichment and purification by avidin affinity chromatography. Probe-modified peptides were resolved, identified, and quantified by high-resolution liquid chromatography-tandem mass spectrometry (LC-MS/MS). Resultant data were analyzed as previously described^[8a, 10a]. Table 2, below, lists sites of modification targeted by sulfonyl-triazole compounds HHS-0101, HHS-0201, HHS-0301, HHS-0401, and HHS-0701. The format of the table is as follows: protein Uniprot accession number (see uniprot.org); tyrosine site (amino acid position) modified; treatment (sulfonyl-triazole compound identification number, followed by Y (where if multiple compounds modify the same site, the compounds are separated by vertical lines).

Q9ULV4 = biological target: T2, Q9ULV4 (Homo sapiens, UniProt Q9ULV4)
T2 construct: endogenous in cells; host or cells: DM93 cells (SILAC)
T2 sequence (Q9ULV4 whole entry): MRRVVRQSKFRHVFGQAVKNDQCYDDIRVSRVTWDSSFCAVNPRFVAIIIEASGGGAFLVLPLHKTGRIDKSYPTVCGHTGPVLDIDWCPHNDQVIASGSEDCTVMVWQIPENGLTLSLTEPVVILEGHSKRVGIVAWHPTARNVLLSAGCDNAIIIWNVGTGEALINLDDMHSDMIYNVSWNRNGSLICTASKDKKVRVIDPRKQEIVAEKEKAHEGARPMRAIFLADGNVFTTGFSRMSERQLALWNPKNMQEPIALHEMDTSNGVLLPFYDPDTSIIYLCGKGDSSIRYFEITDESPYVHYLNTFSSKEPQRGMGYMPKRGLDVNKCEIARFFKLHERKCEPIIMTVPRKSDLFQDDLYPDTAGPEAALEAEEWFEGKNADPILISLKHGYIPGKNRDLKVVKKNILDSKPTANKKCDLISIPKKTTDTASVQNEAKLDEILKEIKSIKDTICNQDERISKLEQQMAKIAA
Protocol: as §1, §2

P11216 = biological target: T3, P11216 (Homo sapiens, UniProt P11216)
T3 construct: endogenous in cells; host or cells: DM93 cells (SILAC)
T3 sequence (P11216 whole entry): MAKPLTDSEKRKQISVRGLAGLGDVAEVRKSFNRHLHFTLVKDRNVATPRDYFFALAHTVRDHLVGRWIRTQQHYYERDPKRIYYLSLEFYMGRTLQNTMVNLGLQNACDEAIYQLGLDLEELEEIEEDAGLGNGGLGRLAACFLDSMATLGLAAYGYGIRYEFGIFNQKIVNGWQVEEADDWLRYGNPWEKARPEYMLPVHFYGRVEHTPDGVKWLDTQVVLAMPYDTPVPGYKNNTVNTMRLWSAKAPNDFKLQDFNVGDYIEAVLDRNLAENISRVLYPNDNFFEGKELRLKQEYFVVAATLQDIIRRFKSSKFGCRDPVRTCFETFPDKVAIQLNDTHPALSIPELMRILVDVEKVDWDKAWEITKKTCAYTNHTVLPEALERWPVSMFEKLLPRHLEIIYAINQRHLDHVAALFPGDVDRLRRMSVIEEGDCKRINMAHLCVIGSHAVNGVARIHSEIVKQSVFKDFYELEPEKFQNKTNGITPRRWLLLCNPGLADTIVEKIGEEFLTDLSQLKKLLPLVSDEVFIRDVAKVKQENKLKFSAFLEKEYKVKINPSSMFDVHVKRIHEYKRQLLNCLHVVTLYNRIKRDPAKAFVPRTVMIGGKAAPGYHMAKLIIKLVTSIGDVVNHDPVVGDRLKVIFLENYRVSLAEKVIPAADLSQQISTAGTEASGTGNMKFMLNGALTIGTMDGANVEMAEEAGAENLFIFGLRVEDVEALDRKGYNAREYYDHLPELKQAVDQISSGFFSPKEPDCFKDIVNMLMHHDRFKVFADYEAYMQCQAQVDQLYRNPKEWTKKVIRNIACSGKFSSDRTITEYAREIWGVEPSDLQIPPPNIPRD
Protocol: as §1, §2

SMILES: O=C(c1ccc(S(=O)(=O)n2cncn2)cc1)N1CCC(c2ccccc2)CC1 [HHS-0701, (4-((1H-1,2,4-triazol-1-yl)sulfonyl)phenyl)(4-phenylpiperidin-1-yl)methanone]
- liganded tyrosine site 159 (P25205): HHS0701.Y (tyrosine sites that showed >80% reductions (SR >5) in probe labeling in cells treated with compounds (liganded sites))
- liganded tyrosine site 188 (P25205): HHS0701.Y (tyrosine sites that showed >80% reductions (SR >5) in probe labeling in cells treated with compounds (liganded sites))
- liganded tyrosine site 304 (Q9ULV4): HHS0701.Y (tyrosine sites that showed >80% reductions (SR >5) in probe labeling in cells treated with compounds (liganded sites))

SMILES: O=C(NCC1CC1)c1ccc(S(=O)(=O)n2cncn2)cc1 [HHS-0201, 4-((1H-1,2,4-triazol-1-yl)sulfonyl)-N-(cyclopropylmethyl)benzamide]
- liganded tyrosine site 204 (P11216): HHS0201.Y (tyrosine sites that showed >80% reductions (SR >5) in probe labeling in cells treated with compounds (liganded sites))

SMILES: O=C(NC1CC1)c1ccc(S(=O)(=O)n2cncn2)cc1 [HHS-0101, 4-((1H-1,2,4-triazol-1-yl)sulfonyl)-N-cyclopropylbenzamide]
- liganded tyrosine site 473 (P11216): HHS0101.Y (tyrosine sites that showed >80% reductions (SR >5) in probe labeling in cells treated with compounds (liganded sites))

SMILES: O=C(NC1CCCCC1)c1ccc(S(=O)(=O)n2cncn2)cc1 [HHS-0301, 4-((1H-1,2,4-triazol-1-yl)sulfonyl)-N-cyclohexylbenzamide]
- liganded tyrosine site 147 (P25205): HHS0301.Y (tyrosine sites that showed >80% reductions (SR >5) in probe labeling in cells treated with compounds (liganded sites))
- liganded tyrosine site 301 (Q9ULV4): HHS0301.Y (tyrosine sites that showed >80% reductions (SR >5) in probe labeling in cells treated with compounds (liganded sites))
